US20110053804A1, “Gene Signatures for the Prognosis of Cancer” (SLOAN-KETTERING INSTITUTE FOR CANCER RESEARCH, priority 2008, published 2011)

Key:
Format in all cases: in vivo, mice
[1] = tested on: LM2 cells; test: Bone metastasis assay, intracardiac injection of TGFβ-pretreated LM2 cells; conditions: LM2 cells pre-treated with TGFβ prior to inoculation into the arterial circulation
Experimental: (§1) FIGS. 3A-D. (A) LM2 cells and a clinically-derived pleural effusion sample (CN34.2A) were pretreated with TGFβ for 6 h. LM2 (2×10^5) and CN34.2A (4×10^5) cells were injected into the lateral tail vein and lung colonization was analyzed by in vivo bioluminescence imaging. (B) Bar graph represents 24 h time point measurements of the normalized photon flux from animals injected with either LM2 or CN34.2A cells. (C) Bone metastasis assays were performed by intracardiac injection of LM2 or BoM-1833 cells (3×10^4). Samples were pretreated with […] of TGFβ for 6 h and compared to an untreated control. (D) Bar graphs represent seven-day time point analysis of the normalized photon flux from the mouse hind limbs.
(§2) To investigate the selectivity of this lung metastasis-priming effect, we tested the effect of TGFβ pre-incubation on the establishment of bone metastases. […]
(§3) For primary tumor analysis, 5×10^5 viable single cells were re-suspended in a 1:1 mixture of PBS and growth-factor-reduced Matrigel (BD Biosciences) and injected orthotopically into both mammary gland number four in a total volume of 100 μL as previously described (Minn et al., 2005). Primary tumor growth rates were analyzed by measuring tumour length (L) and width (W), and calculating tumor volume based on the formula […]. […] Lung metastatic progression was again monitored and quantified using bioluminescence. […]

[2] = tested on: LM2 cells; test: Lung colonization (priming) assay, tail vein injection of TGFβ-pretreated LM2 cells
Experimental: as §1, with “(D) Bar graphs represent seven-day time point analysis of the normalized photon flux from the mouse hind limbs.” left out
(§4) All animal work was done in accordance with a protocol approved by the MSKCC Institutional Animal Care and Use Committee. […] Seven days after mastectomies, lung metastases were monitored and quantified using non-invasive bioluminescence as previously described (Minn et al., 2005).
as §3

[3] = tested on: CN34.2A cells; test: Lung colonization (priming) assay, tail vein injection of TGFβ-pretreated CN34.2A cells; conditions: CN34.2A cells pre-treated with TGFβ 6 h; 24 h time point, normalized photon flux
Experimental: as §1, with “(D) Bar graphs represent seven-day time point analysis of the normalized photon flux from the mouse hind limbs.” left out
as §4, §3

[4] = tested on: BoM-1833 cells; test: Bone metastasis assay, intracardiac injection of TGFβ-pretreated BoM-1833 cells; conditions: BoM-1833 cells pre-incubated with TGFβ
Experimental: as §1, §2, §3

TGFβ: cytokine transforming growth factor beta; TGFβ1 (R&D Systems) used to treat cells for 3 or 6 h
ability to form bone metastases [1]: did not increase | lung colonizing activity (retention of cells in the lungs) ([2]; LM2 cells incubated with TGFβ for 6 h prior to tail vein inoculation, 24 h after inoculation, bioluminescence): significantly increased | increase of lung seeding activity ([2]; LM2 cells pre-treated with TGFβ 6 h, 24 h time point, normalized photon flux): three | increase of lung seeding activity [3]: five | ability to form bone metastases [4]: did not increase | early seeding of the bones ([4]; seven-day time point, hind limbs): no discernible effect
